Results published in patent US20210113594A1, “TUMOR IMMUNOMODULATOR” (OSAKA UNIVERSITY, priority 2018, published 2021).

Legend:
[1] = test system: U251 cell line; test: Tumor-cytotoxic activity using peripheral blood mononuclear cells with EphA2-CD3 BiTE; details: test drug 2.5 μM + BiTE 100 ng/mL; PBMCs of healthy people + U251; 48 hours; n=3; DMC, MC, CTC p<0.01; TC, MINO p<0.05
Procedure: Thereafter, by measuring the degree of cytotoxicity to the tumor cells (tumor-cytotoxic activity) by the PBMCs, the anti-tumor activity of T cells in the PBMCs was evaluated.
(1) A U251 cell line was suspended in a RPMI1640 medium containing 10% FBS (a 10% FBS-supplemented RPMI1640 medium), and then detached with trypsin. The cell line was suspended in a 10% FBS-supplemented RPMI1640 medium such that the cell count was 1×10^5/mL, thereby preparing a cell suspension. The cell suspension was seeded in a 96-well plate at a rate of 100 μL/well, and incubated in a wet incubator at 37° C. for 18 hours in the presence of 5% CO2 gas. […]
(3) EphA 2-CD3 BiTE (registered trademark) containing an antigen-binding domain for EphA2 and an antigen-binding domain for CD3 in the molecule was prepared at 400 ng/mL in a 10% FBS-supplemented RPMI 1640 medium (“BiTE solution”). […] The amount of the 10% FBS-supplemented RPMI medium per well was determined so that the total final amount was 200 μL. […]
(5) The absorbance at 492 nm of each well of the 96-well microplate after the completion of incubation in step (4) was measured with a microplate reader. Subsequently, tumor-cytotoxic activity was calculated in accordance with the following equation.
Absorbance of a well consisting of U251 cell line and PBMCs=A […]

[2] = test system: granzyme B-expressing CD8+T cells; test: Granzyme B staining (FACS) of PBMCs; type: cell-based, human; details: DMC 2.5 μM + BiTE; PBMCs of four healthy people; p=0.01
Procedure: The medium collected in section 1(4) above was centrifuged at 400 g for 5 minutes, and the supernatant was removed to leave the PBMC pellet. Each antibody (CD3, CD4, CD8, and CD45RA) was diluted 100-fold with 2% FBS- and 10 mM HEPES-supplemented HBSS medium (“HBSS+2% FBS+10 mM HEPES” medium). Such antibody diluents were individually added at 30 μL/tube to the pellet in which the supernatant was removed, followed by incubation at 4° C. for 30 minutes. After an HBSS+2% FBS+10 mM HEPES medium was added at 200 μL/tube, and centrifugation was performed at 400 g for 5 minutes, the supernatant was removed to leave the pellet. After the remaining PBMCs were suspended by adding a fix buffer at 100 μL/tube, incubation was performed for 30 minutes at 4° C.
The tube obtained after the completion of incubation was centrifuged at 400 g for 5 minutes to remove the supernatant and leave the PBMC pellet. After a wash buffer was added at 200 μL/tube to suspend the pellet, centrifugation was performed at 400 g for 5 minutes to remove the supernatant and leave the PBMC pellet. An anti-Granzyme B antibody was diluted 100-fold in a wash buffer, and the remaining PBMCs were suspended in the antibody diluent (30 μL/tube), followed by incubation for 30 minutes at 4° C. […]

[3] = test system: CD8+T cells; test: CytoTell assay, proliferative capacity of CD8+T cells; type: cell-based, human; details: DMC 2.5 μM + BiTE; PBMCs of five healthy people; 96 hours; p=0.007
Procedure: PBMCs were collected from peripheral blood of healthy people according to the method described in section 1(1) above. A solution in which CytoTell red was mixed with the HBSS+2% FBS+10 mM HEPES medium was added to the collected PBMC pellet, followed by incubation at 37° C. for 30 minutes. After the completion of incubation, the supernatant was removed by centrifugation at 400 g for 5 minutes to leave the PBMC pellet. By adding a 10% FBS-supplemented RPMI medium, the remaining PBMCs were suspended to prepare a suspension of PBMCs having a cell count of 1×10^6/mL.
As in section 1(3) above, a U251 cell line, PBMCs, and BiTE, or a U251 cell line, PBMC, BiTE, and a test drug, were contacted and cultured at 37° C. for 96 hours.
After the completion of culture, the culture supernatant was collected, followed by washing in a 10% FBS-supplemented RPMI 1640 medium three times, and the media were also collected.
The collected medium was centrifuged at 400 g for 5 min, and the supernatant was removed to leave the PBMC pellet. Each antibody (CD3, CD4, CD8, and CD45RA) was diluted 100-fold with a HBSS+2% FBS+10 mM HEPES medium. The antibody diluents were individually added at 30 μL/tube to the pellet to suspend the remaining PBMCs, followed by incubation at 4° C. for 30 minutes. […]

[4] = test system: CMV-specific cytotoxic T cells; test: CMV-specific CTL induction (mixed CMV peptide/lymphocytes culture); type: cell-based, human; details: DMC 2.5 μM; 14 days after CMV peptide stimulation; PBMCs of one healthy person; p<0.05
Procedure: CMV peptides adjusted to 10 μg/mL in a 10% FBS-supplemented RPMI medium was added to PBMCs of healthy people with an HLA type of 24:02, followed by culture in a 96-well plate for 3 days. […] The medium containing PBMCs in each well was transferred into a 24-well plate for scale-up, followed by culture for another 3 days in a 10% FBS-supplemented RPMI medium containing 10 μg/mL peptide+20 U/mL IL-2±2.5 μM DMC. The medium was replaced with a 10% FBS-supplemented RPMI medium containing 10 μg/mL peptide+20 U/mL IL-2±2.5 μM DMC, followed by culture for another 4 days (culture for 14 days).
After the completion of culture, centrifugation was performed at 400 g for 5 minutes to remove the supernatant and leave the PBMC pellet; and each antibody (CD3, CD4, and CD8) was diluted 100-fold, and CMV Tetramer was diluted 10-fold in a HBSS+2% FBS+10 mM HEPES medium, and added at 30 μL/tube to a PBMC pellet to suspend the PBMCs, followed by incubation at 4° C. for 30 minutes. By adding the HBSS+2% FBS+10 mM HEPES medium at 200 μL/tube, centrifugation was performed at 400 g for 5 minutes. The supernatant was removed to leave the PBMC pellet.
The PBMCs left in the HBSS+2% FBS+10 mM HEPES medium were suspended, and the suspension was subjected to FACS analysis. […]

[5] = test system: U251 cell line; test: Tumor-cytotoxic activity of T cells in lung cancer tissue; type: cell-based, human; details: BiTE + test drug (DMC); n=5 patients
Procedure: Regarding the tumor-cytotoxic activity of T cells in lung cancer tissue, cells were collected from lung cancer tissue according to the following method. The tumor-cytotoxic activity was measured as the activity of the cell population.
The cancer tissue was transferred to a 6-cm dish and minced. The cancer tissue was then placed in a tissue stirring solution (tumor dissociation Kit (Miltenyi Biotec) was added to HBSS+2% FBS+10 mM HEPES), followed by stirring with a gentle MACS™ Dissociator (Miltenyi Biotec). Incubation was then performed by rotating the mixture in an incubator maintained at 37° C. for 30 minutes. […] The tumor-cytotoxic activity of the collected cells was measured in accordance with the same method as in section I.1(1) to (5) above. […]
(§1) According to the method described in section I.5 above, T cells in tumor tissue of a lung cancer patient were collected; and by using such cells, tumor-cytotoxic activity was measured to examine the effect of the tetracycline-based compound. Specifically, T cells in tumor tissue of a lung cancer patient were collected according to the method described in section I.5 above; and the presence ratio of IFNγ-producing CD8^+T cells was measured according to the method described in section I.6 above, thus examining the effect of the tetracycline-based compound.

[6] = test system: IFNγ-producing CD8+T cells; test: IFNγ production assay on cells from lung cancer tissue; type: cell-based, human; details: BiTE + test drug (DMC), n=3 patients
Procedure: The IFNγ production capacity of cells in all media that were collected in section 5 in accordance with the method described in section 1(4) above was measured using an IFNγ secretion assay kit (Miltenyi Biotec).
The medium collected in section 1(4) above was centrifuged at 400 g for 5 minutes to remove the supernatant. An IFNγ catch reagent diluted 100-fold in a 10% human serum-supplemented AIM medium was added at 100 μL/tube to the remaining PBMC pellet to suspend the PBMCs, followed by incubation at 4° C. for 10 minutes.
A 10% human serum-supplemented AIM medium heated to 37° C. was dispensed at 1 mL/tube into the tube subjected to the incubation. While stirring the tube, incubation was performed at 37° C. for 45 minutes. […]
as §1

[7] = test system: CT26WT cells; test: Dependence on CD8+T cells of the enhancement of the anti-PD-L1 antibody in vivo (Example 9); set-up: species or system BALB/c mice
Procedure: In the same manner as in Example 8, CT26WT cells were cultured, and subcutaneously inoculated to 6-week-old BALB/c mice (Day 0).
Before the administration of DMC or water and an anti-PD-L1 antibody, the anti-CD8 antibody (InVivo MAb anti-mouse CD8α, produced by BioXCell) was intraperitoneally administered at 400 μg/200 μL/mouse to the CD8 depletion group on Day 6. Control IgG was administered at 400 μg/200 μL/mouse to the other groups.
Next, administration of DMC was started on Day 7. The DMC was dissolved in saline, and then orally administered at 200 μL/mouse using an oral sonde. In the groups free of DMC, distilled water was orally administered at 200 μL/mouse. The DMC was administered once daily from Day 7 to Day 12.
Subsequently, on Day 10, an anti-PD-L1 antibody or control IgG was intraperitoneally administered at 200 μg/200 μL/mouse.
On Day 10 and Day 13, the tumor size was measured. The tumor volume was calculated in the same manner as in Example 8.

SMILES | T-cell anti-tumor activity (tumor-cytotoxic activity) as compared to BiTE alone [1] | presence ratio of granzyme B-expressing CD8+T cells as compared to BiTE alone [2] | proliferative capacity of CD8+T cells as compared to BiTE alone [3] | presence ratio of CMV-specific cytotoxic T cells (CMV Tetramer+CD8+T cells), DMC+ as compared to DMC− [4] | anti-tumor activity of T cells in lung cancer tissue compared to BiTE alone [5] | presence ratio of IFNγ-producing CD8+T cells compared to BiTE alone [6] | tumor volume on Day 13 ([7]; Example 9, DMC 30 mg/kg oral Day 7 to Day 12, anti-PD-L1 antibody or control IgG 200 μg/mouse ip Day 10, no CD8 depletion) | increase in tumor volume as compared to the aPD-L1+H2O group ([7]; IgG+DMC group, DMC 30 mg/kg oral)
CN(C)[C@@H]1C(=O)C(C(N)=O)=C(O)[C@@]2(O)C(=O)C3=C(O)c4c(O)cccc4[C@@](C)(O)[C@H]3C[C@@H]12 [TC, tetracycline] | enhanced |  |  |  |  |  |  | 
CN(C)[C@@H]1C(O)=C(C(N)=O)C(=O)[C@@]2(O)C(O)=C3C(=O)c4c(O)ccc(Cl)c4[C@@H](O)[C@H]3C[C@@H]12 [DMC, demethyl chlortetracycline] |  | high | high | significantly high | enhanced | increased | about 100 mm^3 | more inhibited
